Reference: US20230285489A1, “METHODS, COMPOSITIONS, AND KITS ADDRESSING DEPRESSED MOOD” (Centre for Addiction and Mental Health, priority 2014, published 2023)

Assay: Breast milk and plasma amino acid levels and tolerability after oral tyrosine or tryptophan
Conditions: for amount of free amino acid in breast milk: after oral supplementation
Description: Many amino acids and most medications freely cross into breast milk. […] The reason is that approximately 98% of tryptophan in breast milk is contained in proteins and peptides and that 99% of tyrosine in breast milk is contained in proteins and peptides. Different supplementation doses of oral tyrosine (0 g (none), 2, 5 or 10 grams) (n=6 each) or oral tryptophan (0 g (none), 2 or 4 grams) (n=6 each) were evaluated for resulting levels in breast milk.

Structure (SMILES)	amount of free amino acid in breast milk	total tryptophan levels in breast milk (oral tryptophan 2 or 4 grams, n=6 each)	adverse effect (tryptophan 4 gram level)	total tryptophan in breast milk (tryptophan 4 gram level)	level in maternal plasma (tryptophan dose of 2 grams)	tolerability (tryptophan dose of 2 grams)	total tryptophan levels in breast milk (tryptophan dose of 2 grams)	total tyrosine levels in breast milk (oral tyrosine 2, 5 or 10 grams, n=6 each)	level in maternal plasma (tyrosine dose of 10 grams)	tolerability (tyrosine dose of 10 grams)	total tyrosine levels in breast milk (tyrosine dose of 10 grams)
N[C@@H](Cc1c[nH]c2ccccc12)C(=O)O [tryptophan, L-tryptophan]	did increase	no change	nausea	did not increase	significantly increased	extremely well tolerated	did not have any effects				
N[C@@H](Cc1ccc(O)cc1)C(=O)O [tyrosine, L-tyrosine]	did increase							no change	significantly increased	extremely well tolerated	did not significantly impact
